Data set [1] has as its system DCX positive cells in the GCL. In words: Doublecortin positive fraction of the GCL (Example 2). The class given is in vivo, mouse. The following applies: 10 mM/kg/day IP, two weeks, sodium salt. On the procedure:
Perfusion, sectioning and, staining: For perfusion, cryosectioning and immunofluorescence staining, see Bjornsson et al. (2014). EdU (Life Sciences) in PBS/6% DMSO (10 mg/ml) injections (50 μg/g/day) were performed either with seven consecutive days followed by immediate perfusion or seven consecutive days of injection and then perfusion on the 30th day after the first injection. […] EdU was imaged with Click-iT EdU Alexa Flour 488 Imaging Kit (Invitrogen) as well as DAPI mounting with Vectamount (Vector Laboratories, Burlingame, Calif.). EdU quantification was done blinded to genotype. Labeled cells were counted in every sixth slice in the granule cell layer of the dentate gyrus and average number per slice was calculated for each brain. For immunofluorescence, primary antibodies included Doublecortin (Santa Cruz Biotechnology, 1:200 goat), trimethylated H3K4 (Cell Signaling, Danvers, Mass.; 1:500 rabbit), and Acetylated H3K9 and […] (Cell Signaling, 1:5000). Primary antibodies were incubated overnight at 4° C. in blocking buffer. Doublecortin area measurement: The DCX positive fraction of the GCL was measured by taking 4× pictures and using the Bezier tool on NS elements 2.0 software (Nikon) to measure the area of cells that expressed DCX as well as the entire granule cell layer.

Data set [2] is described as follows: BHB in urine, colorimetric assay. The data set is classed as in vivo, mouse. On the procedure:
BHB injection and BHB assay: For injections into mice, (R)-(−)-3-hydroxybutyric acid sodium salt (Santa Cruz Biotechnology, Dallas, Tex.) was used at an experimental dose of (10 mM/kg). To detect BHB in the urine (from either injections or ketogenic diet), the β-Hydroxybutyrate (Ketone Body) Colorimetric Assay Kit (Cayman Chemical Company, Ann Arbor, Mich.) was used. Urine from injections was drawn approximately 2 hours after injection and urine from mice on the ketogenic diet was taken in the early afternoon (unless otherwise stated in the text).

Data set [3] concerns H3K4me3 indicator in HEK 293 cells. As to the kind of experiment: H3K4me3 indicator experiment with BHB, FACS. The class given is cell-based. The following applies: 24 hours before FACS; sodium salt. As to the method:
(§1) Indicator experiments: HEK 293 cells were transfected with lipofectamine LTX (Invitrogen, Carlsbad, Calif.) with either the H3K4me3 indicator or the H4ac indicator, synthesized by OriGene Technologies (Rockville, Md.). Stable transfections were maintained through positive selection with blastacidin […] (Life Technologies, Grand Island, N.Y.). For BHB treatment, (R)-(−)-3-Hydroxybutyric acid sodium salt (Santa Cruz Biotechnology) was added to the medium 24 hours before FACS analysis (FACSVerse, BD Biosciences, Franklin Lakes, N.J.). Data was analyzed using FlowJo (Tree Star Inc., Ashland, Oreg.).

For data set [4], the system named is EdU+ cells in the GCL. In words: EdU incorporation in the GCL (proliferation / survival). Conditions: 10 mM/kg/day IP, two weeks, sodium salt. The data set is classed as in vivo, mouse. The text has this:
Animals and treatment: The mouse model, Kmt2d^+/βGeo, also known as (Mll2Gt^(RRt024)Byg), was generated by BayGenomics (University of California, CA) through insertion of a gene trapped vector, and was used on a fully backcrossed C57BL/6J background. The original unbalanced (6:1 fat to protein ration) diet was purchased from Bio-Sery (Ketogenic Diet AIN-76A-Modified High Fat Paste F3666; Flemington, N.J.), while the balanced diet (4:1 ratio) was also from Bio-Serv (F6689 Rodent Diet, Ketogenic, Fat: Paste). Mice were treated for two weeks on the diet, with the paste replaced several times a week. During MWM testing, given the length of testing (week), the mice were treated for three weeks.
BHB injection and BHB assay: For injections into mice, (R)-(−)-3-hydroxybutyric acid sodium salt (Santa Cruz Biotechnology, Dallas, Tex.) was used at an experimental dose of (10 mM/kg). To detect BHB in the urine (from either injections or ketogenic diet), the β-Hydroxybutyrate (Ketone Body) Colorimetric Assay Kit (Cayman Chemical Company, Ann Arbor, Mich.) was used. […]
Perfusion, sectioning and, staining: For perfusion, cryosectioning and immunofluorescence staining, see Bjornsson et al. (2014). […] EdU quantification was done blinded to genotype. Labeled cells were counted in every sixth slice in the granule cell layer of the dentate gyrus and average number per slice was calculated for each brain. […]

In data set [5] the test system is H4ac indicator in HEK 293 cells. As to the kind of experiment: H4ac indicator experiment with BHB, FACS. The class given is cell-based. The following applies: 24 hours before FACS; sodium salt. On the procedure: as §1
For data set [6], the system named is H3K4 trimethylation and histone acetylation. The following applies: Huang et al. (2011); cited from earlier work.
In data set [7] the test system is H3K4 trimethylation activity in Kmt2d^+/βGeo and Kmt2d^+/+ MEFs. In words: H3K4me3 indicator in murine embryonic fibroblasts (MEFs). The data set is classed as cell-based, mouse. Conditions: Kmt2d^+/βGeo cells treated with HDAC inhibitor. The text has this: An H3K4 trimethylation reporter was also created. This reporter is based on the H3 tail on one end and the TBP associated factor III (TAFIII) homeodomain on the other end; the TAFIII homeodomain only identifies and binds to trimethylated K4 on H3. When the H3K4 site gets trimethylated, the TAFIII homeodomain can bind to the modified H3 tail and bring the two parts of the separated GFP in close proximity. The activity of the epigenetic modification system can be quantified through fluorescence.
(§2) Epigenetic reporter alleles: Epigenetic reporter alleles were synthesized (OriGene, Rockville, Md.) using published sequences for component elements (Baird et al. (1999) Proc. Nail. Acad. Sci. 96:11241-6; Souslova et al. (2007) BMC Biotechnol. 7:37). Single nucleotide mutations were created using the QuickChange Lightening kit (Agilent Technologies Inc, Santa Clara, Calif.). For H4ac indicator, K5R, K8R, K12R, K16R and K20R (MUT indicator) were introduced. For H3K4me3 indicator, K4Q and D890A/W891A and M882A (three separate constructs) were introduced. For transient transfections, mouse embryonic fibroblasts (see below) were transfected with Fugene HD (Promega, Madison, Wis.), 48 hours prior to FACS. […] For drug stimulation, drug was added to the media 24 hours prior to FACS. For stable transfections in T293 (American Type Culture Collection) cells, 10 μg/ml of Blastocidin (Life Technologies, Carlsbad, Calif.) was added to the media for several weeks. For stable transfection in MEFs, the reporter was transferred to a ViraPower Lentiviral Expression System (Life Technologies, Carlsbad, Calif.). After selection with Blastocidin, the drug of interest was added 24 hours prior to FACS. SAHA, AR-42 and MS275 were purchased from Selleck (Selleck Chemicals, Houston, Tex.). […] FACS data were analyzed using FlowJo (Tree Star Inc, Ashland, Oreg.). A plasmid expressing HDAC3 was acquired from Addgene (Cambridge, Mass., plasmid 13819) and transfected into a stable cell line carrying the H4 acetyl reporter allele.

Data set [8] concerns H4ac indicator (H4 acetylation machinery activity) in HEK293 cells. As to the kind of experiment: H4ac (acetylation) indicator reporter assay, FACS. The data set is classed as cell-based.
From the text: Design of the indicator constructs. A genetically encoded histone reporter allele system has been developed which can be used to monitor activity of any histone maintenance machinery component in live cells. Previously, FRET based epigenetic activity systems have been created (Lin and Ting (2004) Angew Chem Int Ed Engl. 24;43 (22):2940-3; Lin et al. (2004) J. Am. Chem. Soc. 19;126(19):5982-3; U.S. Pat. No. 7,056,683). However, FRET-based assays need a complex technological setup which is not widely available and FRET-based assays have been much more difficult to introduce into transgenic mouse models. […] The particular construct design is based on a circularly permutated green fluorescent protein (GFP) that lacks fluorescence unless the two parts of GFP are brought into close proximity by external forces (Baird et al. (1999) Proc. Natl. Acad. Sci. U.S.A. 28;96(20):11241-6). The constructs are targeted to the nucleus through a nuclear localization signal (NLS). Mutants were also created that knocked out the activity of the indicator allele.
The acetyl reporter protein quantifies the activity of the acetylation machinery (acetylation of H4 specifically at the 5th, 8th, 12th and 16th Lysine's) and comprises an H4 tail on one end (the target for acetylation) and a TBP associated factor II (TAFII) bromodomain on the other end of the reporter protein. The TAFII bromodomain only recognizes and binds to the acetylated H4 tail, resulting in reconstitution of GFP structure and function (i.e. fluorescence). Therefore, the reporter protein has no fluorescence unless it is acetylated by the acetylation system of the nucleus of the cell.
as §2

Entries after “also recorded” stand apart in the source; their conditions may differ.

`C[C@@H](O)CC(=O)[O-].[Na+]` [BHB, (R)-(−)-3-hydroxybutyric acid sodium salt]: in data set [1], the “DCX positive cells, treated Kmt2d^+/βGeo versus treated Kmt2d^+/+” value is recorded as “not to Kmt2d^+/+ BHB treated levels; also recorded: did not lead to a full recovery”. Moreover, in data set [1] (Kmt2d^+/βGeo), the “DCX positive cells, treated versus vehicle” value is recorded as “increase in DCX expression; also recorded: significant increase in DCX positive cells”. Besides, in data set [2] (10 mM/kg at 9 AM), the “BHB level in the urine over a 12 hour day after one injection” value is given as “decreased to vehicle injected levels over a matter of hours”. Besides, the “BHB level in the urine after injection” value in data set [2] (10 mM/kg, urine after 1.5 hours) is given as “most similar to treatment with a ketogenic diet”. The “time of maximal drug activity” value in data set [2] (after injection) turned out to be 1.5 h. In addition, in data set [3], the “H3K4me3 indicator response to increased amounts in culture media” value is given as “dose-dependent increased activity; also recorded: dose-dependent response”. The “EdU positive cells, treated Kmt2d^+/βGeo versus Kmt2d^+/+” value in data set [4] is listed as “did not recover back; also recorded: did not lead to a full recovery”. The “EdU positive cells (proliferation), treated versus vehicle” value in data set [4] (Kmt2d^+/βGeo) is listed as “significant increase in EdU expression; also recorded: significant increase in EdU positive cells”. In data set [5], the “H4Ac indicator response to increased amounts in culture media” value is recorded as “dose-dependent increased activity; also recorded: dose-dependent response”.
Consider `Nc1ccccc1NC(=O)c1ccc(CNC(=O)OCc2cccnc2)cc1` [MS275, Pyridin-3-ylmethyl N-[[4-[(2-aminophenyl)carbamoyl]phenyl]methyl]carbamate], for which the “effect on H3K4 trimethylation and histone acetylation” value in data set [6] was “increase H3K4 trimethylation and histone acetylation”. The H3K4 trimethylation activity entry in data set [7] is listed as “enhanced; also recorded: improved”.
For the molecule `O=C(CCCCCCC(=O)Nc1ccccc1)NO` [SAHA, N′-hydroxy-N-phenyl-octanediamide], the “cells easily discriminated from auto fluorescence (H4ac indicator)” value worked out at 5% in data set [8] (1 μM of SAHA), 20% in data set [8] (2.5 μM of SAHA), 40% in data set [8] (7.5 μM of SAHA) and 45% in data set [8] (10 μM of SAHA). For the same molecule, in data set [8] (FACS, culture systems), the “fluorescence response of acetylation indicator to increasing amounts of drug” value is listed as “linear fluorescence response; also recorded: increasing fluorescence”. The “acetylation of the indicator” value in data set [8] (FIG. 18A) is listed as “increases acetylation of the indicator”. In addition, the “H4ac indicator signal upon stimulation” value in data set [8] (HEK293 cells stably expressing the H4ac indicator) is given as “increased signal”.

Source of the values: patent US10568854B2, “Compositions and methods for treating kabuki syndrome and related disorders” (THE JOHNS HOPKINS UNIVERSITY, priority 2014, dated 2020).
